Experimental data: ChEMBL document CHEMBL1132922, “Corticotropin releasing factor (CRF) receptor modulators: progress and opportunities for new therapeutic agents” (J Med Chem, 2000)
Values belong to the compound of their own block, whether it stands above or below them. Residues, ends and D or L forms follow the SMILES beside them.

Experiments:
[1] = molecular target: T1, Corticotropin-releasing factor receptor 2 (Homo sapiens, UniProt Q13324); assay: Activity of peptidic agonists on h-CRF2-alpha receptor using agonist-stimulated adenylate cyclase assay; format: functional
T1 sequence (Q13324 whole entry): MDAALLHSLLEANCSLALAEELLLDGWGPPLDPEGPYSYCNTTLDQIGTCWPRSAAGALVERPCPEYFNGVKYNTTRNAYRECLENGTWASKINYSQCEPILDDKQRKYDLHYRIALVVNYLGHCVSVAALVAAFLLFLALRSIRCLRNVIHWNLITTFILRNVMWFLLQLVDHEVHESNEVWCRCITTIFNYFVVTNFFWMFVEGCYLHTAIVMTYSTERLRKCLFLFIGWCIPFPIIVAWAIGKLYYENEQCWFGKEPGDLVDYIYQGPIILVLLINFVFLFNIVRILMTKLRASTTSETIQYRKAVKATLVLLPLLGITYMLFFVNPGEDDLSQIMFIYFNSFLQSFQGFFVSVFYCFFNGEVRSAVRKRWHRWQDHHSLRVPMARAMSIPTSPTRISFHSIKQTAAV

[2] = molecular target: T1, Corticotropin-releasing factor receptor 2; assay: Binding affinity of the receptor h-CRF2-alpha with peptidic agonists
[3] = molecular target: T2, Corticotropin-releasing factor receptor 1 (Homo sapiens, UniProt P34998); assay: Activity of peptidic agonists on corticotropin releasing factor receptor using agonist-stimulated adenylate cyclase assay; format: functional
T2 sequence (P34998 whole entry): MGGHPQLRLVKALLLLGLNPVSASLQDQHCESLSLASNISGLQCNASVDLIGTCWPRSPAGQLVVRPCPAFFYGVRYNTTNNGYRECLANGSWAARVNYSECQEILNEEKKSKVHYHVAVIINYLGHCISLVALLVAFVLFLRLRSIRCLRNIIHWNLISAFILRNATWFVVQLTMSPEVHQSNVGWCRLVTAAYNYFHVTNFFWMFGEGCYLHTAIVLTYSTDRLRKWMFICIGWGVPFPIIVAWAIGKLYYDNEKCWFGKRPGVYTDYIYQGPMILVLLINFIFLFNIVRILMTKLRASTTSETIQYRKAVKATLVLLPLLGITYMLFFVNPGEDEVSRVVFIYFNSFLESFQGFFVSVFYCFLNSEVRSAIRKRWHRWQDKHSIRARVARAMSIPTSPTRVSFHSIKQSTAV

[4] = molecular target: T2, Corticotropin-releasing factor receptor 1; assay: Binding affinity of the receptor corticotropin releasing factor receptor with peptidic agonists
Rattus norvegicus [5] = species: Rattus norvegicus; assay: effective concentration used to stimulate the secretion of adenocorticotropic hormone(ACTH) in primary cultures of rat pituitary cells; format: functional, cell-based; conditions: Pituitary gland cell
[6] = Inhibition of ovine CRF stimulated adenylate cyclase assay in CHO-p5 cells; format: functional, cell-based; conditions: Ovis aries
[7] = molecular target: T3, Corticotropin releasing factor receptor (Rattus norvegicus, UniProt P47866+P35353); assay: (§1) Compound was tested for the binding affinity to rat corticotropin releasing factor receptor; format: protein assay
[8] = molecular target: T3, Corticotropin releasing factor receptor; assay: Compound was tested for the inhibition of binding of the radioligand, [125 I-Tyr0]-CRF to rat cerebral cortex membrane; format: tissue-based
[9] = molecular target: T2, Corticotropin-releasing factor receptor 1; assay: Compound was tested for the binding affinity to human corticotropin releasing factor 1 (hCRF1) receptors.
Rattus norvegicus [10] = species: Rattus norvegicus; assay: 50% inhibitory concentration to antagonize Corticotropin releasing factor (CRF) stimulated adenylate cyclase; format: functional
HEK293 = assay: Inhibition of h- CRF mediated increase in adenylate cyclase activity was evaluated in HEK293 cells; format: functional, cell-based; conditions: Homo sapiens
Rattus norvegicus [11] = species: Rattus norvegicus; assay: Oral activity was evaluated in an rat situational anxiety test; format: functional
Rattus norvegicus [12] = assay: Minimum effective dose in rat […] anxiety test when administered perorally; format: functional; conditions: po, read-out: MED
Rattus norvegicus [13] = assay: Percent reduction in latency time in the dark compartment at 20 mg/kg was reported; format: functional
[14] = molecular target: T2, Corticotropin-releasing factor receptor 1; assay: Compound was tested for the binding affinity to human corticotropin releasing factor 1 (hCRF1) receptors
[15] = molecular target: T3, Corticotropin releasing factor receptor; assay: Inhibition of binding of the radioligand, [125 I-Tyr0]-CRF to rat cerebral cortex membrane; format: tissue-based
[16] = molecular target: T3, Corticotropin releasing factor receptor; assay: as §1; format: protein assay; remark: listed apart in the source

EC50 [1]: 61.9 nM
Ki [2]: 86.4 nM
EC50 [3]: 9.7 nM
Ki [4]: 7.16 nM
Compound: CC[C@H](C)[C@H](NC(=O)[C@H](CC(=O)O)NC(=O)[C@H](CC(C)C)NC(=O)[C@H](CC(C)C)NC(=O)[C@H](CCCCN)NC(=O)[C@H](CCCN=C(N)N)NC(=O)[C@H](CC(N)=O)NC(=O)[C@H](CO)NC(=O)[C@H](Cc1cnc[nH]1)NC(=O)[C@H](C)NC(=O)[C@H](CCC(N)=O)NC(=O)[C@H](CCC(N)=O)NC(=O)[C@H](C)NC(=O)[C@H](CC(C)C)NC(=O)[C@H](CCC(N)=O)NC(=O)[C@H](CC(=O)O)NC(=O)[C@H](C)NC(=O)[C@H](CCCCN)NC(=O)[C@@H](NC(=O)[C@H](CCSC)NC(=O)[C@H](CCC(=O)O)NC(=O)[C@H](CC(C)C)NC(=O)[C@@H](NC(=O)[C@H](CCC(=O)O)NC(=O)[C@H](CCCN=C(N)N)NC(=O)[C@H](CC(C)C)NC(=O)[C@H](CC(C)C)NC(=O)[C@H](Cc1cnc[nH]1)NC(=O)[C@H](Cc1ccccc1)NC(=O)[C@@H](NC(=O)[C@H](CC(C)C)NC(=O)[C@H](CC(=O)O)NC(=O)[C@H](CC(C)C)NC(=O)[C@H](CO)NC(=O)[C@@H](NC(=O)[C@@H]1CCCN1C(=O)[C@@H]1CCCN1C(=O)[C@H](CCC(=O)O)NC(=O)[C@H](CCC(N)=O)NC(=O)[C@@H](N)CO)[C@@H](C)CC)[C@@H](C)O)C(C)C)[C@@H](C)O)C(=O)N[C@@H](C)C(N)=O

EC50 (Rattus norvegicus [5]): 0.2 nM
Compound: CC[C@H](C)[C@H](NC(=O)[C@@H](NC(=O)[C@H](CCC(=O)O)NC(=O)[C@H](CCSC)NC(=O)[C@H](CC(C)C)NC(=O)[C@H](CCCCN)NC(=O)[C@H](CCCN=C(N)N)NC(=O)[C@H](CC(N)=O)NC(=O)[C@H](CO)NC(=O)[C@H](Cc1c[nH]cn1)NC(=O)[C@H](C)NC(=O)[C@H](CCC(N)=O)NC(=O)[C@H](CCC(N)=O)NC(=O)[C@H](C)NC(=O)[C@H](CC(C)C)NC(=O)[C@H](CCC(N)=O)NC(=O)[C@H](CCC(=O)O)NC(=O)[C@H](C)NC(=O)[C@H](CCCN=C(N)N)NC(=O)[C@H](C)NC(=O)[C@H](CCSC)NC(=O)[C@H](CCC(=O)O)NC(=O)[C@H](CC(C)C)NC(=O)[C@@H](NC(=O)[C@H](CCC(=O)O)NC(=O)[C@H](CCCN=C(N)N)NC(=O)[C@H](CC(C)C)NC(=O)[C@H](CC(C)C)NC(=O)[C@H](Cc1c[nH]cn1)NC(=O)[C@H](Cc1ccccc1)NC(=O)[C@@H](NC(=O)[C@H](CC(C)C)NC(=O)[C@H](CC(=O)O)NC(=O)[C@H](CC(C)C)NC(=O)[C@H](CO)NC(=O)[C@@H](NC(=O)[C@@H]1CCCN1C(=O)[C@@H]1CCCN1C(=O)[C@H](CCC(=O)O)NC(=O)[C@H](CCC(=O)O)NC(=O)[C@@H](N)CO)[C@@H](C)CC)[C@@H](C)O)C(C)C)[C@@H](C)CC)C(N)=O

IC50 [6]: 357 nM
Compound: CCCCN(CC)c1cc(C)nc2c(-c3ccc(Cl)cc3Cl)c(C)nn12

Ki [7]: 4 nM
Compound: CCc1nc2c(c(C)nn2-c2ccc(C(C)C)cc2Br)n1Cc1ccccc1

IC50 [8]: 10 nM
Compound: CCN(c1nc(C)cc(N2CCC=C(c3ccccc3C)C2)n1)c1ccc(C(C)C)cc1SC

Ki [9]: 1.3 nM
Compound: CCC(CC)n1nnc2c(N3CCc4cc(Cl)cc(Cl)c43)nc(C)cc21

Ki [9]: 13.7 nM
Compound: CCCN(CCOC)c1cc(C)nc2c(-c3ccc(OC)c(OC)c3)c(C)nn12

IC50 [8]: 12.7 nM
Compound: CCN(c1nc(C)cc(N2CC=C(c3cccc(F)c3)CC2)n1)c1ccc(C(C)C)cc1SC

IC50 [8]: 80 nM
Compound: CCCN(c1nc(-c2ccc(Cl)cc2Cl)c(C)s1)c1cccc2ncccc12

EC50 [1]: 1.4 nM
Ki [2]: 2.73 nM
EC50 [3]: 3.4 nM
Ki [4]: 7.3 nM
Compound: CC[C@H](C)[C@H](NC(=O)[C@@H](NC(=O)[C@H](CC(=O)O)NC(=O)[C@H](CC(C)C)NC(=O)[C@H](CC(C)C)NC(=O)[C@H](CC(C)C)NC(=O)[C@H](CCCN=C(N)N)NC(=O)[C@H](CC(N)=O)NC(=O)[C@H](CC(N)=O)NC(=O)[C@H](C)NC(=O)[C@H](C)NC(=O)[C@H](CCC(N)=O)NC(=O)[C@H](CCC(N)=O)NC(=O)[C@H](CCCCN)NC(=O)[C@H](CCC(=O)O)NC(=O)[C@H](CCCCN)NC(=O)[C@H](CCC(=O)O)NC(=O)[C@H](CCC(N)=O)NC(=O)[C@H](CCCCN)NC(=O)[C@H](CCC(=O)O)NC(=O)[C@@H](NC(=O)[C@H](CCC(=O)O)NC(=O)[C@@H](NC(=O)[C@H](CCSC)NC(=O)[C@H](CCCCN)NC(=O)[C@H](CCCN=C(N)N)NC(=O)[C@H](CC(C)C)NC(=O)[C@H](CC(C)C)NC(=O)[C@H](CCC(=O)O)NC(=O)[C@H](CC(C)C)NC(=O)[C@H](CO)NC(=O)[C@H](CC(C)C)NC(=O)[C@H](CC(=O)O)NC(=O)[C@@H](NC(=O)[C@H](CO)NC(=O)[C@@H](NC(=O)[C@@H]1CCCN1C(=O)[C@@H]1CCCN1C(=O)CNC(=O)[C@@H](N)CCC(N)=O)[C@@H](C)CC)[C@@H](C)CC)[C@@H](C)CC)[C@@H](C)CC)[C@@H](C)O)C(N)=O

IC50 (Rattus norvegicus [10]): 20000 nM
Compound: Cc1cc(C)nc(N(C)c2ccccc2Br)n1

Ki [14]: 1 nM
Compound: CCC(CC)Nc1cc(C)nc2c(-c3ccc(OC)cc3C)c(C)nn12
IC50 (HEK293): 10000 nM
ED50 (Rattus norvegicus [11]): 1 mg/kg
minimal effective dose (Rattus norvegicus [12]): 1 mg/kg
Reduction (Rattus norvegicus [13]): 57%

IC50 [15]: 3300 nM
IC50 (Rattus norvegicus [10]): 1000 nM
Compound: Cc1c(SSc2c(C)n(C)n(-c3ccc4ccccc4c3)c2=O)c(=O)n(-c2ccc3ccccc3c2)n1C

IC50 [8]: 22.1 nM
Compound: CCN(c1nc(C)cc(N2CC=C(c3cccc(F)c3)CC2)n1)c1ccc(C(C)C)cc1Br

Ki [7]: 8.8 nM
Compound: CCCCC(CC)n1c(C)nc2c(-c3ccc(Cl)cc3Cl)ncnc21 (configuration not stated)

IC50 [15]: 13700 nM
IC50 (Rattus norvegicus [10]): 2900 nM
Compound: CC(=O)Sc1c(C)n(C)n(-c2ccccc2)c1=O

EC50 [1]: 0.32 nM
Ki [2]: 3.6 nM
EC50 [3]: 0.22 nM
Ki [4]: 3.76 nM
Compound: CC[C@H](C)[C@H](NC(=O)[C@H](CO)NC(=O)[C@H](CC(C)C)NC(=O)[C@H](CO)NC(=O)[C@@H]1CCCN1C(=O)[C@H](CC(N)=O)NC(=O)[C@@H](N)CC(=O)O)C(=O)N[C@@H](CC(=O)O)C(=O)N[C@@H](CC(C)C)C(=O)N[C@H](C(=O)N[C@@H](Cc1ccccc1)C(=O)N[C@@H](Cc1cnc[nH]1)C(=O)N[C@@H](CC(C)C)C(=O)N[C@@H](CC(C)C)C(=O)N[C@@H](CCCNC(=N)N)C(=O)N[C@H](C(=O)N[C@@H](CC(C)C)C(=O)N[C@@H](CC(C)C)C(=O)N[C@@H](CCC(=O)O)C(=O)N[C@@H](CC(C)C)C(=O)N[C@@H](C)C(=O)N[C@@H](CCCNC(=N)N)C(=O)N[C@H](C(=O)N[C@@H](CCC(N)=O)C(=O)N[C@@H](CO)C(=O)N[C@@H](CCC(N)=O)C(=O)N[C@@H](CCCNC(=N)N)C(=O)N[C@@H](CCC(=O)O)C(=O)N[C@@H](CCCNC(=N)N)C(=O)N[C@@H](C)C(=O)N[C@@H](CCC(=O)O)C(=O)N[C@@H](CCC(N)=O)C(=O)N[C@@H](CC(N)=O)C(=O)N[C@@H](CCCNC(=N)N)C(=O)N[C@H](C(=O)N[C@H](C(=O)N[C@@H](Cc1ccccc1)C(=O)N[C@@H](CC(=O)O)C(=O)N[C@@H](CO)C(=O)N[C@H](C(N)=O)C(C)C)[C@@H](C)CC)[C@@H](C)CC)[C@@H](C)O)[C@@H](C)O)[C@@H](C)O (H-DNPSLSIDLTFHLLRTLLELARTQSQRERAEQNRIIFDSV-NH2)

Ki [16]: 1 nM
Compound: CCCCN(CC)c1nc(C)nc2c1c(C)c(C)n2-c1c(C)cc(C)cc1C [ANTALARMIN]

EC50 [1]: 1.5 nM
Ki [2]: 1.26 nM
EC50 [3]: 6.3 nM
Ki [4]: 1.07 nM
Compound: H-NDDPPISIDLTFHLLRNMIEMARIENEREQAGLNRKYLDEV-NH2
